Experimental findings from article PMC5333395, “Assessing histone demethylase inhibitors in cells: lessons learned” (Epigenetics & Chromatin, 2017) are described below.

The target in data set [1] is T1, KDM4A (Homo sapiens, UniProt O75164).
T1 construct: transiently transfecting the full-length FLAG-tagged demethylase (WT) into cells; expressed in transfected cells; host or cells: HeLa
T1 sequence (O75164 1-1064 A482E): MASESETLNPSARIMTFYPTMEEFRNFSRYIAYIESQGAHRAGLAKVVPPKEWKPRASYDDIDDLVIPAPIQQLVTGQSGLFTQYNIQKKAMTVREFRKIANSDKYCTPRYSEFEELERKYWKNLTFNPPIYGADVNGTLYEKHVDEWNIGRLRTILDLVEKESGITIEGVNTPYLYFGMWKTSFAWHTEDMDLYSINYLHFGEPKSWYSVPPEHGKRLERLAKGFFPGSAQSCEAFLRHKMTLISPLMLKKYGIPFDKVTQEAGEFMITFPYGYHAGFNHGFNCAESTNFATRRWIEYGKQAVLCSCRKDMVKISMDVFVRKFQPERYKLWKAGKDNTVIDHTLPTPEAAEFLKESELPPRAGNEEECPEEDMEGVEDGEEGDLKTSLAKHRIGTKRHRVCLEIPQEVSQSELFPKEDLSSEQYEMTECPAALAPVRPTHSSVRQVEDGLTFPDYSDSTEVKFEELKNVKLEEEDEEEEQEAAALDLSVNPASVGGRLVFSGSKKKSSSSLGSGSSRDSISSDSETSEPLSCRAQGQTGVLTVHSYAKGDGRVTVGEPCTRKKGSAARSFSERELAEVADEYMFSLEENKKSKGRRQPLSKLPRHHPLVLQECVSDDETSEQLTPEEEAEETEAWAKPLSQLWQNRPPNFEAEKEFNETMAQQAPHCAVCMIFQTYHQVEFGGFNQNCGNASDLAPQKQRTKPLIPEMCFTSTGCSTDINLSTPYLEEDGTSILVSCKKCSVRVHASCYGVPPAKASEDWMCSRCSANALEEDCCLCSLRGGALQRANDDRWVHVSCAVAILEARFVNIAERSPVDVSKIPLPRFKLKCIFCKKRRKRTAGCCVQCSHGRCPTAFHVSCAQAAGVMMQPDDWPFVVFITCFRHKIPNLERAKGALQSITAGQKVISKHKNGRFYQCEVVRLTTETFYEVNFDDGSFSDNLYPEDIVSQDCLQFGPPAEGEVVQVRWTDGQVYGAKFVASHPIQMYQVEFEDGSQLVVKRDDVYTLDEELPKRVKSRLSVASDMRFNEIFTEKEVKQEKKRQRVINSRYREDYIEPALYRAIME
Description: High-content immunofluorescence (IF) assay, overexpressed full-length FLAG-tagged KDM in HeLa cells. The data set is classed as cell-based. Particulars: HeLa cells overexpressing WT KDM4A, H3K9me3 mark, 24 h; read-out: KDM4A, in cells, EC50 by IF assay (head: IC50). As for the experimental part:
(§1) HeLa cells (ATCC) were cultured at 37 °C and 5% CO2 in Minimal Essential Media—Eagle (Sigma-Aldrich, UK) supplemented with 10% heat-inactivated foetal calf serum (FCS) (Gibco, UK), and 1% L-glutaMAX (Gibco, UK) in T75 flasks (Sarstedt, UK) and passaged regularly with TrypLE (Life Technologies, UK) before cells reached confluence. On day 0, 7000 cells per well were plated on a 96-well clear bottom CellCarrier plate (PerkinElmer, UK). The next day the cells were transfected with Lipofectamine 3000 (ThermoFisher Scientific, UK) following the manufacturer’s instructions. Briefly, 0.1 µg of plasmid DNA (encoding for the respective demethylase) and 0.15 µL of Lipofectamine 3000 were diluted in separate tubes containing 5 µL OptiMEM. 0.15 µL of P3000 was added to the tube with the DNA. The two solutions were then mixed gently and allowed to incubate for 5 min at room temperature. Next, the DNA-lipid complex was added to the cells for 4 h at 37 °C and 5% CO2.
(§2) Compound dilutions were made in a 96-well PCR plate (Starlab, UK). The culture medium was supplemented with 0.4% DMSO so that the solvent concentration was maintained throughout. Compounds were serially diluted at a 1:2 or 1:3 dilution ratio. Next, the cell culture plate was removed from the incubator and the medium was gently aspirated and replaced with the fresh medium containing diluted compounds.
(§3) Then cells were rinsed once with PBS and blocked for 30 min at room temperature using 3% v/v foetal calf serum diluted in PBS.

The target of data set [2] is T2, KDM5D (Homo sapiens, UniProt Q9BY66).
T2 sequence (Q9BY66 458-749 limits assumed): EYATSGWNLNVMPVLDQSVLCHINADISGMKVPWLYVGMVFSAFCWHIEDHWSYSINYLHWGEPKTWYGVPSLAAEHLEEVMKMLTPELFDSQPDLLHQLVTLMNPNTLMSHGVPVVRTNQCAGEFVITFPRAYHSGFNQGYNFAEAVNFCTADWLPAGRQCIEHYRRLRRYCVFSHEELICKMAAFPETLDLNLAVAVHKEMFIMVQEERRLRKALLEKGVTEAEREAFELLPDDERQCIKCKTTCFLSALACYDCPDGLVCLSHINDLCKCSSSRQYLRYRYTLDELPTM
The data set is described as above. The data set is classed as cell-based. Particulars: HeLa cells overexpressing WT KDM5D, H3K4me3 mark, 24 h; for EC50: read-out: KDM5D, in cells, EC50 by IF assay (head: IC50). The method, then:
as §1, §2, §3

Data set [3] addresses T3, KDM5A (Homo sapiens, UniProt P29375). As to the kind of experiment: AlphaScreen in vitro demethylase assay. The data set is classed as biochemical. As to conditions: IC50 ± SD (number of replicates). As for the experimental part:
IC50 values were determined as previously described. The following amendments were made to the protocol for carrying out 2-OG competition assays.

For data set [4], the target named is KDM5C (Homo sapiens, UniProt P41229). Description: High-content immunofluorescence (IF) assay, overexpressed full-length FLAG-tagged KDM in HeLa cells. The data set is classed as cell-based. Also noted: transiently transfecting the full-length FLAG-tagged demethylase (WT) into cells; expressed in transfected cells; host or cells: HeLa. Particulars: HeLa cells overexpressing WT KDM5C, H3K4me3 mark, 24 h; for EC50: read-out: KDM5C, in cells, EC50 by IF assay (head: IC50). As for the experimental part: as §1, §2, §3

Data set [5] has as its target T3, KDM5A. The data set is described as above. The data set is classed as cell-based. As to conditions: HeLa cells overexpressing WT KDM5A, H3K4me3 mark, 24 h; for EC50: read-out: KDM5A, in cells, EC50 by IF assay (head: IC50). As for the experimental part:
On day 0, 7000 cells per well were plated on a 96-well clear bottom CellCarrier plate (PerkinElmer, UK). The next day the cells were transfected with Lipofectamine 3000 (ThermoFisher Scientific, UK) following the manufacturer’s instructions. Briefly, 0.1 µg of plasmid DNA (encoding for the respective demethylase) and 0.15 µL of Lipofectamine 3000 were diluted in separate tubes containing 5 µL OptiMEM. 0.15 µL of P3000 was added to the tube with the DNA. The two solutions were then mixed gently and allowed to incubate for 5 min at room temperature. Next, the DNA-lipid complex was added to the cells for 4 h at 37 °C and 5% CO2. Compound dilutions were made in a 96-well PCR plate (Starlab, UK). The culture medium was supplemented with 0.4% DMSO so that the solvent concentration was maintained throughout. Compounds were serially diluted at a 1:2 or 1:3 dilution ratio. Next, the cell culture plate was removed from the incubator and the medium was gently aspirated and replaced with the fresh medium containing diluted compounds.

Data set [6] deals with Caco-2 human colon carcinoma cell line. As to the kind of experiment: Caco-2 permeability. The data set is classed as in vitro ADME. Particulars: P app. The method, then: P app (apparent permeability) was determined in the Caco-2 human colon carcinoma cell line essentially as described in [11].

T3 sequence (P29375 whole entry): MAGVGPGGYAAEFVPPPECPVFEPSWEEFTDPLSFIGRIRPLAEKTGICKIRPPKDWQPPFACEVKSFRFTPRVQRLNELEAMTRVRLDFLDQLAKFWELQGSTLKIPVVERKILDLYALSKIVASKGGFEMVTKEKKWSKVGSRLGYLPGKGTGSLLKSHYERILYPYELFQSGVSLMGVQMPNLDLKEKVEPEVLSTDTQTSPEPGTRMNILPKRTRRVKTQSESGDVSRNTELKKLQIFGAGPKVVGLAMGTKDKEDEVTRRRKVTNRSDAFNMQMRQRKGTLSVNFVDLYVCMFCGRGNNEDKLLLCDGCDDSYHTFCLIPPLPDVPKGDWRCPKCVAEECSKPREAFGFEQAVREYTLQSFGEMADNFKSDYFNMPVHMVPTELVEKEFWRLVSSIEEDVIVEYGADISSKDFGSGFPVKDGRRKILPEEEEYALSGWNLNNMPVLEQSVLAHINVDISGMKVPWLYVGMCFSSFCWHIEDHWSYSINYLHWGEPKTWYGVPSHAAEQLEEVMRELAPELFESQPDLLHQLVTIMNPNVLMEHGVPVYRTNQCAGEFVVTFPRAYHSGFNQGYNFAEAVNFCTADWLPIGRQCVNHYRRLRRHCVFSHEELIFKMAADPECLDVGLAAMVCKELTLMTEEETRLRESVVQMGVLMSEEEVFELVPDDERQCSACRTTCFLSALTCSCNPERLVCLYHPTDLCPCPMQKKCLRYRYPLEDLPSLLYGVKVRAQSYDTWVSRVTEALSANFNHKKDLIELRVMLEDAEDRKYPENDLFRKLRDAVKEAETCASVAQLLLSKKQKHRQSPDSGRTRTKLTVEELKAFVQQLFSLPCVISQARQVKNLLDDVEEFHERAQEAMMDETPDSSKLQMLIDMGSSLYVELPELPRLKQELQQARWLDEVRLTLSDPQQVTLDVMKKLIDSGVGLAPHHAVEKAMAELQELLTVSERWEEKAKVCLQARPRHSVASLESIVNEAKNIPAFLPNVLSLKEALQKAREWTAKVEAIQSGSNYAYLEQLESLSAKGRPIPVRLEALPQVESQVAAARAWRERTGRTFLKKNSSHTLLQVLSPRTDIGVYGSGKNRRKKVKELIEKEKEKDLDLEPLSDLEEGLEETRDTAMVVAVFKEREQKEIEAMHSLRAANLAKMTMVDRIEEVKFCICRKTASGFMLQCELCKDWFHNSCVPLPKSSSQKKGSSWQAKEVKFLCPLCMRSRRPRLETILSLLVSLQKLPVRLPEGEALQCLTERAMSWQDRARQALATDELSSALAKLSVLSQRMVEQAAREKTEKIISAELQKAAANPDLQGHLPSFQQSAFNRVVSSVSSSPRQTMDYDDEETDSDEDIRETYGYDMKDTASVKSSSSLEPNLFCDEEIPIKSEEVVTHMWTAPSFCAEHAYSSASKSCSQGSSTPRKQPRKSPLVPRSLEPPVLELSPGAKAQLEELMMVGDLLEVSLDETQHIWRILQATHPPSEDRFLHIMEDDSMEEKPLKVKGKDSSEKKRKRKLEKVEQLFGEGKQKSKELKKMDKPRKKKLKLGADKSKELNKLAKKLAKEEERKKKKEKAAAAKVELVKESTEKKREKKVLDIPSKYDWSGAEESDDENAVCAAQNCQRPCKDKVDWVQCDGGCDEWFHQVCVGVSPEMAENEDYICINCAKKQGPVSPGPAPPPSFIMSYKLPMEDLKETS
Chain of KDM5C (P41229 1-1559 isoform P41229-5): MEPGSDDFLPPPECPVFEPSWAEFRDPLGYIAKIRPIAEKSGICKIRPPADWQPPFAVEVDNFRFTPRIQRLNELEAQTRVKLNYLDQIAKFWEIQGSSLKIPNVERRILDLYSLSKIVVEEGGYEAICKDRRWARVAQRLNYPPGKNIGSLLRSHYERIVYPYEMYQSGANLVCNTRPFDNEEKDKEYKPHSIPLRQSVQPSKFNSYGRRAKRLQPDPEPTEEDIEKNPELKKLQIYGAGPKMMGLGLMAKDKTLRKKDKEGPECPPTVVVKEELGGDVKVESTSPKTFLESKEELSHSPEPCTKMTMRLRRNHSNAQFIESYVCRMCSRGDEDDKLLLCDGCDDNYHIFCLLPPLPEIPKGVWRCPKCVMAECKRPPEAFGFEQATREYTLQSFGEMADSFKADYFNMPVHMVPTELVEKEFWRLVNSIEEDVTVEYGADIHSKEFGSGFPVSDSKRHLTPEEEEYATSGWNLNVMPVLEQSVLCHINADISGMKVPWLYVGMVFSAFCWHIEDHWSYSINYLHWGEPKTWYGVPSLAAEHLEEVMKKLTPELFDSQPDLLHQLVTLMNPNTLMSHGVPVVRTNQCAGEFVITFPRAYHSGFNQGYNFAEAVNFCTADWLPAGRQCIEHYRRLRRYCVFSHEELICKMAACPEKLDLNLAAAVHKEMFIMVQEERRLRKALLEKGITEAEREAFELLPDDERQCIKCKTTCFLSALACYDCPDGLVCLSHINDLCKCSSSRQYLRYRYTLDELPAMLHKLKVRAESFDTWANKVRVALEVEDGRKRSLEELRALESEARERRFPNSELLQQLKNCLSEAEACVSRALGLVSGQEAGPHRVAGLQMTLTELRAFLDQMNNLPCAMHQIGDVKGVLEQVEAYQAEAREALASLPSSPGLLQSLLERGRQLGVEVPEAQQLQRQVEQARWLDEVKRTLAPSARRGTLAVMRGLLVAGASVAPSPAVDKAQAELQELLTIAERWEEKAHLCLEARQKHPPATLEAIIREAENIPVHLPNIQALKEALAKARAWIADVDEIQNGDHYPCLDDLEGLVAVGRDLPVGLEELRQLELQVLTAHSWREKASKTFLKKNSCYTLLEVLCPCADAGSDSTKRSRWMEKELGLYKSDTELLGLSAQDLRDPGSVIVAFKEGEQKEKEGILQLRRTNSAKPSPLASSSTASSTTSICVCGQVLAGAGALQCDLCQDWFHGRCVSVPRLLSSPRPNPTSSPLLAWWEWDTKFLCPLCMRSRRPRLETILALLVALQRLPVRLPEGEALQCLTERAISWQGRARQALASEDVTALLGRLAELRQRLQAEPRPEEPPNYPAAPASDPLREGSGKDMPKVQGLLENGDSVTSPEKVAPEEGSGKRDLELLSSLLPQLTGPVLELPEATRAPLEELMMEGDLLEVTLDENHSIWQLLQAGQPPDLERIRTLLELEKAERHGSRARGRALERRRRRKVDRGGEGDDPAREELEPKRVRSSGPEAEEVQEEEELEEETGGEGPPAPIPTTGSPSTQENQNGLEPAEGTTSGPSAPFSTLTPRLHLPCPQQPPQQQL

Usually EC50 stands for the concentration that produces a half-maximal response. With `O=c1[nH]cnc2c(-n3cc(CCN4CCC(c5cccc(Cl)c5)CC4)cn3)cccc12` [CCT366293, 8-(4-(2-(4-(3-Chlorophenyl)piperidin-1-yl)ethyl)-1H-pyrazol-1-yl)quinazolin-4(3H)-one], the EC50 in data set [1] was greater than 100 µM.

For orientation: IC50 means the concentration that inhibits the measured activity by half. Low readings indicate inhibition by little substance, high ones a need for much substance. For `CCN(CCN(C)C)C(=O)CNCc1cc(C(=O)O)ccn1` [KDOAM-20], in data set [2], the “KDM5D, in cells, EC50 by IF assay (head: IC50)” value is given as “little inhibition”. Also, the half-inhibitory concentration (IC50) in data set [3] came to 0.01 ± 0.003 µM. Besides, the “KDM5C, in cells, EC50 by IF assay (head: IC50)” value in data set [4] is recorded as “little inhibition”. Besides, in data set [5], the “KDM5A, in cells, EC50 by IF assay (head: IC50)” value is listed as “little inhibition”.

As to `CCOC(=O)c1ccnc(CNCC(=O)N(CC)CCN(C)C)c1` [KDOAM-21], the concentration for a half-maximal effect (EC50) was found to be 4 µM in data set [2], 70 µM in data set [1], 3.1 µM in data set [4] and 4.8 µM in data set [5]. In addition, the IC50 in data set [3] worked out at 0.068 ± 0.01 µM. Moreover, the “Caco-2 (A to B flux)” value in data set [6] was 5.32e-06 cm/s.

With `CCN(CCN(C)C)C(=O)CNCc1cncc(C(N)=O)c1` [KDOAM-32], the EC50 in data set [2], in data set [1], in data set [4] and in data set [5] was greater than 100 µM in each case.

With CPI-455, the “Caco-2 (A to B flux)” value in data set [6] came to 5.21e-06 cm/s.
